PubChem BioAssay (NCI)
Values joined by “and” are separate entries in the source; they are usually repeats but may differ in a detail not shown here. Equal entries are not always repeated.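 Test compounds were applied to cells in 96-well plates for 48 hours at 5 doses. The concentration for 50% growth inhibition is given as GI50. TGI: total growth inhibition.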

Assays:
Test in all cases: NCI tumour cell line growth inhibition, 48 h
[1] = test system: NCI-H226 lung
[2] = test system: CAKI-1 renal
[3] = test system: DU-145 prostate
[4] = test system: A498 renal
[5] = test system: A549 NSCLC
[6] = test system: HS 578T breast
[7] = test system: U251 CNS
[8] = test system: NCI-H522 lung
[9] = test system: T-47D breast
[10] = test system: SF-295 CNS

| Compound | GI50 [1] | TGI [1] | GI50 [2] | TGI [2] | GI50 [3] | TGI [3] | GI50 [4] | TGI [4] | GI50 [5] | TGI [5] | GI50 [6] | TGI [6] | GI50 [7] | TGI [7] | GI50 [8] | TGI [8] | GI50 [9] | TGI [9] | GI50 [10] | TGI [10] |
| --- | --- | --- | --- | --- | --- | --- | --- | --- | --- | --- | --- | --- | --- | --- | --- | --- | --- | --- | --- | --- |
| Cc1cc(C)c(NC(=O)c2sc3nc4c(cc3c2N)CN(Cc2ccccc2)CC4)c(C)c1 | 4.69 µM | > 100 µM | 2.81 µM | > 100 µM | 2.62 µM | 7.65 µM | 1.31 µM | 7.71 µM | 4.11 µM | > 100 µM | 2.66 µM | 65.9 µM | 4.35 µM | 24.2 µM | 1.6 µM | 6.82 µM | 2.62 µM | > 100 µM | 1.89 µM | 64.7 µM |
| CNS(=O)(=O)NNS(=O)(=O)c1ccc(Br)cc1 |  | > 100 µM |  | > 100 µM |  |  |  | > 100 µM |  | > 100 µM |  |  |  | > 100 µM |  | > 100 µM |  |  |  |  |
| CN(CCO)c1ccc(N2Cc3ccccc3OC3=C2C(=O)c2c(O)ccc(O)c2C3=O)cn1 | 0.854 µM | 2.95 µM |  |  | 0.174 µM | 0.323 µM | 2.17 µM | 5.66 µM | 2.08 µM | 4.9 µM | 0.418 µM | > 100 µM | 0.284 µM | 0.82 µM | 0.0323 µM | 0.116 µM | 0.176 µM | 0.577 µM | 1.41 µM | 3.52 µM |
| O=S(=O)(c1ccccc1)C1CN2OC1(S(=O)(=O)c1ccccc1)CC2c1ccc(Br)cc1 (configuration not stated) |  | > 100 µM |  | > 100 µM |  |  |  | > 100 µM |  | > 100 µM |  |  |  | > 100 µM |  | > 100 µM |  |  |  | > 100 µM |
| CCCN1CN(C(C(=O)N[C@@H]2C(=O)N3C2SC(C)(C)C3C(=O)O)c2ccc(O)cc2)CSC1=S (some centres not stated) |  |  |  | > 100 µM |  |  |  | > 100 µM |  |  |  |  |  | > 100 µM |  | 83.6 µM |  |  |  | > 100 µM |
| Cc1cc(C)nc(NS(=O)(=O)c2ccc(NC(=O)c3cccc4c(Nc5ccc(S(N)(=O)=O)cc5)c5ccccc5nc34)cc2)n1 |  | > 100 µM |  | > 100 µM |  |  |  | > 100 µM |  | > 100 µM |  |  |  | > 71.2 µM |  | 38.7 µM |  |  |  | > 100 µM |
| COc1c[c]([Hg][O]C(C)=O)c(OC)c(NC(=O)CC(C)=O)[c]1[Hg][O]C(C)=O | 19.5 µM | 42.9 µM | 2.26 µM | 4.26 µM |  |  | 8.03 µM | 22.6 µM | 26 µM | 45.9 µM |  |  | 12.6 µM | 27.8 µM |  | 0.154 µM |  |  | > 41.7 µM | > 55.8 µM |
| Cc1ccc(S(=O)(=O)c2ccc(N)cc2)cc1 |  |  |  | > 100 µM |  |  |  | > 100 µM |  | > 100 µM |  |  |  | > 100 µM |  |  |  |  |  | > 100 µM |
| NC(=O)OCCn1cc(-c2nc(-c3c[nH]c4ncccc34)cs2)c2ccccc21 | 1.68 µM | 12.5 µM | 2.42 µM | 8.54 µM | 3.07 µM | 26.1 µM | 0.905 µM | 2.87 µM | 2.34 µM | 23 µM | 1.07 µM | 4.25 µM | 1.91 µM | 5.08 µM | 1.49 µM | 4.42 µM |  |  | 2.29 µM | 7.7 µM |
| CC(C)C(=O)NS(=O)(=O)c1ccccc1 |  | > 100 µM |  | > 100 µM |  |  |  | > 100 µM |  | > 100 µM |  |  |  | > 100 µM |  | > 100 µM |  |  |  | > 100 µM |
| CN1C(=O)/C(=C/c2c(Cl)n(C)c3ccccc23)c2ccccc21 | 5.05 µM |  | 3.3 µM and 1.43 µM | 2.77 µM | 5.05 µM |  |  |  | 7.78 µM |  | 3.46 µM and 2.42 µM | 9.29 µM and 5.34 µM | 3.7 µM and 1.73 µM | 3.16 µM | 5.12 µM |  |  | 0.825 µM | 2.74 µM and 1.58 µM | 7.76 µM and 2.99 µM |
| CC(C)C(=O)Nc1nc2c(ncn2C2OC(CO)C(O)C2O)c(=O)[nH]1 (configuration not stated) |  | > 100 µM |  | > 100 µM |  |  |  | > 100 µM |  | > 100 µM |  |  |  | > 100 µM |  | > 100 µM |  |  |  | > 100 µM |
| O[C@H](c1cc(C(F)(F)F)nc2c(C(F)(F)F)cccc12)[C@@H]1CCCCN1 | 6.72 µM | 22.6 µM | 1.96 µM | 7.29 µM | 3.41 µM | 10.6 µM | 8.98 µM | 22.1 µM | 5.25 µM | 16.3 µM | 4.35 µM | 25.5 µM | 3.05 µM | 8.38 µM |  |  | 3.82 µM | 16 µM | 2.08 µM | 5.36 µM |
| O=Cc1ccc2c(c1-c1c(C=O)ccc3c1OCO3)OCO2 |  | > 100 µM |  | > 100 µM |  |  |  | > 100 µM |  | > 100 µM |  |  |  | > 100 µM |  | > 100 µM |  |  |  | > 100 µM |
| COc1cc2c3c(n(CCCOC(=O)C(F)(F)F)c(=O)c2cc1OC)-c1cc2c(cc1C3=O)OCO2 | < 0.0151 µM | 0.161 µM | < 0.01 µM |  |  | 1.71 µM | 0.375 µM | 20.6 µM |  |  | 52.7 µM | > 100 µM | < 0.01 µM | 1.07 µM | 0.0167 µM |  |  | > 28.2 µM | < 0.01 µM | 0.721 µM |
| CC(C)N(C(=O)C12C3C4C1(I)C1C2C3(I)C41C(=O)N(C(C)C)C(C)C)C(C)C (configuration not stated) |  | > 100 µM |  | > 100 µM |  |  |  | > 100 µM |  | > 100 µM |  |  |  | > 100 µM |  | > 100 µM |  |  |  | > 100 µM |
| COC1(OC)CC2C(=O)N(Cc3ccccc3)C1C=C2S(=O)(=O)c1ccccc1 (configuration not stated) |  | 47.3 µM |  |  |  |  |  | 45 µM |  | 64.2 µM |  |  |  | 29 µM |  | 27.7 µM |  |  |  | > 100 µM |
| Cc1cc(NS(=O)(=O)c2ccc(Nc3c4ccccc4nc4c(C(=O)N5CCN(CCO)CC5)ccc(Cl)c34)cc2)no1 |  | > 100 µM |  | > 100 µM |  |  |  | > 100 µM |  | > 100 µM |  |  |  | > 100 µM |  |  |  |  |  | > 100 µM |
| COc1ncc(-c2ccc3ncnc(Nc4cccc(Cl)c4)c3c2)cc1NS(=O)(=O)C1CC1 |  |  |  |  |  |  |  |  |  |  | 0.365 µM | > 100 µM | 4.75 µM | > 100 µM |  |  |  |  |  |  |
| COC(=O)/C=C/c1c(CC=C(C)C)ncn1C |  | > 89.8 µM |  | > 100 µM |  |  |  | > 100 µM |  | > 100 µM |  |  |  | > 67.1 µM |  | > 100 µM |  |  |  | > 100 µM |
| COC(=O)[C@H]1C=C[C@@H](C)n2c(=O)c3cc4ccccc4cc3c(=O)n21 |  | > 100 µM |  | > 100 µM |  |  |  | > 100 µM |  | > 100 µM |  |  |  | > 100 µM |  | > 100 µM |  |  |  | > 100 µM |
